Assay results: the NIST ThermoML archive (doi:10.1021/acs.jced.7b00520)

Experiment: mn = molality of the nth substance listed, in mol/kg
Conditions: 101.3 kPa, Liquid; for viscosity: Capillary tube (Ostwald / Ubbelohde) method; for mass density: Vibrating tube method

Cn1cnc2c1c(=O)[nH]c(=O)n2C [1H-purine-2,6-dione, 3,7-dihydro-3,7-dimethyl-] + O
Conditions | mass density, 288.15 K [kg/m3] | mass density, 298.15 K [kg/m3] | mass density, 308.15 K [kg/m3] | mass density, 318.15 K [kg/m3] | viscosity, 288.15 K [mPa·s] | viscosity, 298.15 K [mPa·s] | viscosity, 308.15 K [mPa·s] | viscosity, 318.15 K [mPa·s]
m1 = 0.00051 | 999.157 | 997.073 | 994.088 | 990.268 | 1.138 | 0.891 | 0.72 | 0.597
m1 = 0.0007 | 999.167 | 997.083 | 994.097 | 990.277 | 1.139 | 0.891 | 0.72 | 0.597
m1 = 0.0009 | 999.177 | 997.093 | 994.107 | 990.287 | 1.139 | 0.891 | 0.72 | 0.597
m1 = 0.00098 | 999.182 | 997.097 | 994.111 | 990.291 | 1.139 | 0.891 | 0.72 | 0.597
m1 = 0.00123 | 999.195 | 997.11 | 994.123 | 990.303 | 1.139 | 0.891 | 0.72 | 0.597
m1 = 0.00147 | – | – | – | – | 1.139 | 0.891 | 0.72 | 0.597
m1 = 0.00148 | 999.209 | 997.123 | 994.135 | 990.314 | – | – | – | –
m1 = 0.00182 | – | – | – | – | 1.139 | 0.891 | 0.72 | 0.597
m1 = 0.00183 | 999.228 | 997.141 | 994.152 | 990.331 | – | – | – | –
m1 = 0.00212 | – | – | – | – | 1.139 | 0.891 | 0.72 | 0.597
m1 = 0.00213 | 999.244 | 997.156 | 994.167 | 990.346 | – | – | – | –

Cn1c(=O)c2c(ncn2C)n(C)c1=O [caffeine] + O
Conditions | mass density, 288.15 K [kg/m3] | mass density, 298.15 K [kg/m3] | mass density, 308.15 K [kg/m3] | mass density, 318.15 K [kg/m3] | viscosity, 288.15 K [mPa·s] | viscosity, 298.15 K [mPa·s] | viscosity, 308.15 K [mPa·s] | viscosity, 318.15 K [mPa·s]
m1 = 0.00508 | – | – | – | – | 1.14 | 0.895 | 0.723 | 0.599
m1 = 0.0051 | 999.404 | 997.304 | 994.303 | 990.464 | – | – | – | –
m1 = 0.00693 | – | – | – | – | 1.142 | 0.896 | 0.724 | 0.6
m1 = 0.00695 | 999.505 | 997.399 | 994.39 | 990.545 | – | – | – | –
m1 = 0.009 | – | – | – | – | 1.144 | 0.896 | 0.724 | 0.601
m1 = 0.00902 | 999.619 | 997.504 | 994.488 | 990.637 | – | – | – | –
m1 = 0.01986 | – | – | – | – | 1.147 | 0.9 | 0.728 | 0.606
m1 = 0.01993 | 1000.22 | 998.06 | 995.013 | 991.121 | – | – | – | –
m1 = 0.02978 | – | – | – | – | 1.152 | 0.905 | 0.732 | 0.609
m1 = 0.02992 | 1000.77 | 998.576 | 995.497 | 991.571 | – | – | – | –
m1 = 0.03531 | 1001.07 | 998.853 | 995.759 | 991.812 | – | – | – | –
m1 = 0.03533 | – | – | – | – | 1.154 | 0.907 | 0.735 | 0.611
m1 = 0.03983 | – | – | – | – | 1.156 | 0.91 | 0.737 | 0.613
m1 = 0.04008 | 1001.34 | 999.101 | 996.001 | 992.025 | – | – | – | –
m1 = 0.04953 | – | – | – | – | 1.162 | 0.914 | 0.741 | 0.617
m1 = 0.04992 | 1001.89 | 999.619 | 996.484 | 992.483 | – | – | – | –

Cn1c(=O)c2[nH]cnc2n(C)c1=O [3,7-dihydro-1,3-dimethyl-1H-purine-2,6-dione] + O
Conditions | mass density, 288.15 K [kg/m3] | mass density, 298.15 K [kg/m3] | mass density, 308.15 K [kg/m3] | mass density, 318.15 K [kg/m3] | viscosity, 288.15 K [mPa·s] | viscosity, 298.15 K [mPa·s] | viscosity, 308.15 K [mPa·s] | viscosity, 318.15 K [mPa·s]
m1 = 0.00208 | 999.241 | 997.153 | 994.165 | 990.343 | – | – | – | –
m1 = 0.00213 | – | – | – | – | 1.139 | 0.891 | 0.719 | 0.597
m1 = 0.00284 | – | – | – | – | 1.139 | 0.892 | 0.72 | 0.597
m1 = 0.00285 | 999.283 | 997.192 | 994.204 | 990.379 | – | – | – | –
m1 = 0.00378 | 999.333 | 997.239 | 994.25 | 990.423 | – | – | – | –
m1 = 0.00394 | – | – | – | – | 1.14 | 0.892 | 0.72 | 0.598
m1 = 0.00479 | 999.388 | 997.291 | 994.3 | 990.472 | – | – | – | –
m1 = 0.00519 | – | – | – | – | 1.14 | 0.892 | 0.721 | 0.598
m1 = 0.00578 | 999.443 | 997.341 | 994.35 | 990.519 | – | – | – | –
m1 = 0.00617 | – | – | – | – | 1.141 | 0.893 | 0.722 | 0.599
m1 = 0.00689 | – | – | – | – | 1.141 | 0.893 | 0.722 | 0.599
m1 = 0.00699 | 999.509 | 997.404 | 994.41 | 990.578 | – | – | – | –
m1 = 0.00776 | 999.551 | 997.443 | 994.448 | 990.614 | – | – | – | –
m1 = 0.00819 | – | – | – | – | 1.142 | 0.894 | 0.723 | 0.599
m1 = 0.00921 | – | – | – | – | 1.142 | 0.895 | 0.723 | 0.6
m1 = 0.00934 | 999.638 | 997.526 | 994.528 | 990.691 | – | – | – | –
m1 = 0.00986 | 999.667 | 997.554 | 994.554 | 990.716 | – | – | – | –
